According to PubChem BioAssay (NCI):
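Where inhibition never reached the appropriate level, the endpoint shown equals the highest concentration tested. Otherwise, values were interpolated linearly from a five-concentration, 48-hour dose response in 96-well plates. GI50: concentration for 50% inhibition of growth. TGI is the concentration that stops growth completely.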

Experiments:
Assay in all cases: NCI tumour cell line growth inhibition, 48 h
[1] = tested on: LOX IMVI melanoma
[2] = tested on: NCI-H226 lung
[3] = tested on: KM12 colon
[4] = tested on: HCT-15 colon
[5] = tested on: SW-620 colon
[6] = tested on: SN12C renal
[7] = tested on: HOP-92 NSCLC
[8] = tested on: OVCAR-4 ovarian
[9] = tested on: OVCAR-8 ovarian

Compound | GI50 [1] | TGI [1] | GI50 [2] | TGI [2] | GI50 [3] | TGI [3] | GI50 [4] | TGI [4] | GI50 [5] | TGI [5] | GI50 [6] | TGI [6] | TGI [7] | TGI [8] | TGI [9] | GI50 [9]
COc1ccc2cc(-c3ccc(-c4ccc(C(=N)N)s4)s3)ccc2c1 | 1.95 µM | 3.82 µM | 23.6 µM | 59.3 µM | 2.06 µM | 4.68 µM | 1.89 µM | 3.7 µM | 1.91 µM | 3.81 µM | 2.12 µM | 4.65 µM | – | – | – | –
COc1ccc2nc3cc(Cl)ccc3c(NCCCNCCCNc3c4ccc(Cl)cc4nc4ccc(OC)cc34)c2c1 | – | 0.0145 µM | – | 0.177 µM | – | – | – | 1.06 µM | – | – | – | 0.285 µM | 0.347 µM | – | – | –
O=C1C[C@H](Sc2ccccc2)C2(OCCO2)[C@@H](Sc2ccccc2)C1 | – | 2.17 µM | – | 6.03 µM | – | 7.36 µM | – | – | – | 10.4 µM | – | 10.6 µM | 5.74 µM | 28.4 µM | 8.02 µM | –
c1ccc2c(c1)NC(C1OC3CCCN3C1C1Nc3ccccc3S1)S2 (centres undefined) | – | – | – | – | – | > 100 µM | – | > 100 µM | – | > 100 µM | – | > 100 µM | > 100 µM | > 100 µM | > 100 µM | –
COc1nc(C#CCC(C)O)nc(OC)n1 (centres undefined) | – | 40.6 µM | – | – | – | 82 µM | – | 45.6 µM | – | 47.7 µM | – | 42.5 µM | – | 36.2 µM | 39.5 µM | –
COc1cc([N+](=O)[O-])c(OC)cc1-c1nc2sc(Cl)cn2c1/C=N/Nc1ccccn1 | > 50 µM | > 50 µM | 12.1 µM | 48.8 µM | > 50 µM | > 50 µM | 28.1 µM | > 50 µM | > 50 µM | > 50 µM | 8.53 µM | 36.8 µM | – | – | > 50 µM | 17.3 µM
N#C/C(=C\c1cc(Br)c(O)c(Br)c1)c1cccnc1 | – | – | – | 91.4 µM | – | > 100 µM | – | 44 µM | – | > 100 µM | – | > 100 µM | – | > 100 µM | > 100 µM | –
Cc1cc2[nH]c3[nH]c(=O)[nH]c(=O)c3c2cc1C | – | > 100 µM | – | > 100 µM | – | > 100 µM | – | > 100 µM | – | > 100 µM | – | > 100 µM | > 100 µM | – | > 100 µM | –
CC(C)(C)NC(=O)/C(=C\Sc1ccccc1)c1ccc2c(c1)OCO2 | – | 48.9 µM | – | – | – | > 100 µM | – | > 100 µM | – | > 100 µM | – | 84.2 µM | 55.1 µM | > 100 µM | > 100 µM | –
CO[C@]12CC(=O)C3(C(C[C@H]4CC5CC=C6C[C@@H](OC(C)=O)CC[C@]6(OC(C)=O)C5C[C@@]43C)C1)C1C[C@H]3[C@@H]4CC=C5C[C@@H](OC(C)=O)CC[C@]5(OC(C)=O)[C@H]4CC[C@]3(C)C12 (some centres undefined) | – | 53.4 µM | – | – | – | 54.3 µM | – | > 100 µM | – | > 100 µM | – | 29.8 µM | > 100 µM | 24.4 µM | > 100 µM | –
COc1cc(NS(C)(=O)=O)ccc1N1Cc2cnc3ccc4[nH]c(C)cc1c4c23 | – | > 100 µM | – | > 100 µM | – | > 100 µM | – | > 100 µM | – | > 100 µM | – | – | > 100 µM | > 100 µM | > 100 µM | –
Cc1c2c(n(CCc3ccc(Cl)cc3)c1C)NN=C(C#N)S2(=O)=O | – | > 100 µM | – | > 100 µM | – | > 100 µM | – | > 100 µM | – | > 100 µM | – | > 100 µM | – | > 100 µM | – | –
C=CCn1c(=O)ccn(COCCO)c1=O | – | > 100 µM | – | > 100 µM | – | > 100 µM | – | – | – | > 100 µM | – | > 100 µM | > 100 µM | > 100 µM | > 100 µM | –
COc1ccc(C2(CC(C)O)SCCCS2)cc1 (centres undefined) | – | – | – | > 100 µM | – | > 100 µM | – | > 100 µM | – | > 100 µM | – | > 100 µM | > 100 µM | > 100 µM | > 100 µM | –
COc1cc(C2SCC(=O)N2c2ccc(NC(=O)c3ccc(N4C(=O)CSC4c4cc(OC)c(OC)c(OC)c4)cc3)cc2)cc(OC)c1OC (centres undefined) | – | > 100 µM | – | – | – | > 100 µM | – | > 100 µM | – | > 100 µM | – | > 100 µM | 79.1 µM | > 100 µM | > 100 µM | –
O=[N+]([O-])/C(C(Cl)=C(Cl)Cl)=C(\Nc1cccc2cccnc12)SCc1ccccc1 | – | – | – | 48.6 µM | – | 50.4 µM | – | 43.4 µM | – | 36.8 µM | – | 60.7 µM | – | 46 µM | – | –
C/C=C/C=C/c1nc(C#N)c(N)o1 | – | > 100 µM | – | > 100 µM | – | – | – | > 100 µM | – | > 100 µM | – | > 100 µM | > 100 µM | > 100 µM | > 100 µM | –
O=C1/C(=C\c2cccc(Oc3ccccc3)c2)S(=O)(=O)C(c2ccccc2)N1Cc1ccccc1 (centres undefined) | – | 62.9 µM | – | – | – | 56.8 µM | – | 33.7 µM | – | > 100 µM | – | 58.6 µM | 73.3 µM | – | 53.4 µM | –
